Measured values from the supplement of paper PMC10307832.

What was measured:
Assay in all cases: relative viability (nuclei count vs DMSO), 5 days (fraction); higher = more cells survive
NCI-H2023 = conditions: first compound 4 µM
Procedure, shortened: (§1)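 The day after seeding in 1536-well plates, lung cancer cell lines were treated by pin tool with a single drug, or with a fixed anchor-drug dose together with five library-drug doses (not always all listed) in √10 steps. After 5 days, a combined fix-and-stain solution (final 0.05% Triton X-100, 1% formaldehyde, 1 ug/ml Hoechst) was added. Nuclei counted on 4× images gave relative viability as treated counts over vehicle counts, reported as the median of duplicate plates.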

NCI-H2087 = system: NCI-H2087
Procedure, shortened: as §1

NCI-H2126 = system: NCI-H2126
Procedure, shortened: as §1

NCI-H2347 = system: NCI-H2347
Procedure, shortened: as §1

NCI-H23 = system: NCI-H23
Procedure, shortened: as §1

NCI-H3122 = system: NCI-H3122
Procedure, shortened: as §1

NCI-H441 = system: NCI-H441
Procedure, shortened: as §1

NCI-H522 = system: NCI-H522
Procedure, shortened: as §1

NCI-H596 = system: NCI-H596
Procedure, shortened: as §1

NCI-H647 = system: NCI-H647
Procedure, shortened: as §1

NCI-H650 = system: NCI-H650
Procedure, shortened: as §1

NCI-H727 = system: NCI-H727
Procedure, shortened: as §1

NCI-H838 = system: NCI-H838
Procedure, shortened: as §1

`Clc1ccc(Nc2nnc(Cc3ccncc3)c3ccccc23)cc1` [Vatalanib] + Cc1cc(Nc2cc(N3CCN(C)CC3)nc(Sc3ccc(NC(=O)C4CC4)cc3)n2)n[nH]1 [Tozasertib] (partner 0.1 µM) showed a relative viability (NCI-H2023) of 0.241, a relative viability (NCI-H2087; first compound 0.04 µM) of 0.254 and a relative viability (NCI-H2087; first compound 0.1265 µM) of 0.261. It also gave a relative viability (NCI-H2087; first compound 0.4 µM) of 0.295, a relative viability (NCI-H2087; first compound 1.265 µM) of 0.228 and a relative viability (NCI-H2087; first compound 4 µM) of 0.253. It also gave a relative viability (NCI-H2126; first compound 0.04 µM) of 0.808, a relative viability (NCI-H2126; first compound 0.1265 µM) of 0.769 and a relative viability (NCI-H2126; first compound 0.4 µM) of 0.829. The relative viability (NCI-H2126; first compound 1.265 µM) was 0.805, the relative viability (NCI-H2126; first compound 4 µM) was 0.82 and the relative viability (NCI-H2347; first compound 0.04 µM) was 0.462. The relative viability (NCI-H2347; first compound 0.1265 µM) was 0.579, the relative viability (NCI-H2347; first compound 0.4 µM) was 0.678 and the relative viability (NCI-H2347; first compound 1.265 µM) was 0.61. The relative viability (NCI-H2347; first compound 4 µM) was 0.55, the relative viability (NCI-H23; first compound 0.04 µM) was 0.435 and the relative viability (NCI-H23; first compound 0.1265 µM) was 0.373. It also gave a relative viability (NCI-H23; first compound 0.4 µM) of 0.364, a relative viability (NCI-H23; first compound 1.265 µM) of 0.314 and a relative viability (NCI-H23; first compound 4 µM) of 0.578. For the same molecule, the relative viability (NCI-H3122; first compound 0.04 µM) was 0.401, the relative viability (NCI-H3122; first compound 0.1265 µM) was 0.358 and the relative viability (NCI-H3122; first compound 1.265 µM) was 0.378. The relative viability (NCI-H3122; first compound 4 µM) was 0.385, the relative viability (NCI-H441; first compound 0.04 µM) was 0.847 and the relative viability (NCI-H441; first compound 0.1265 µM) was 0.746. The relative viability (NCI-H441; first compound 0.4 µM) was 0.643, the relative viability (NCI-H441; first compound 1.265 µM) was 0.659 and the relative viability (NCI-H441; first compound 4 µM) was 0.598. It also gave a relative viability (NCI-H522; first compound 0.04 µM) of 0.565, a relative viability (NCI-H522; first compound 0.1265 µM) of 0.508 and a relative viability (NCI-H522; first compound 0.4 µM) of 0.636. It also gave a relative viability (NCI-H522; first compound 1.265 µM) of 0.57, a relative viability (NCI-H522; first compound 4 µM) of 0.477 and a relative viability (NCI-H596; first compound 0.04 µM) of 0.783. For the same molecule, the relative viability (NCI-H596; first compound 0.1265 µM) was 0.821, the relative viability (NCI-H596; first compound 0.4 µM) was 0.831 and the relative viability (NCI-H596; first compound 1.265 µM) was 0.747. It also gave a relative viability (NCI-H596; first compound 4 µM) of 0.952, a relative viability (NCI-H647; first compound 0.04 µM) of 0.3 and a relative viability (NCI-H647; first compound 0.1265 µM) of 0.262. The relative viability (NCI-H647; first compound 0.4 µM) was 0.352, the relative viability (NCI-H647; first compound 1.265 µM) was 0.26 and the relative viability (NCI-H647; first compound 4 µM) was 0.259. For the same molecule, the relative viability (NCI-H650; first compound 0.04 µM) was 0.81, the relative viability (NCI-H650; first compound 0.1265 µM) was 0.655 and the relative viability (NCI-H650; first compound 1.265 µM) was 0.718. The relative viability (NCI-H650; first compound 4 µM) was 0.631, the relative viability (NCI-H727; first compound 0.04 µM) was 0.6 and the relative viability (NCI-H727; first compound 0.1265 µM) was 0.658. The relative viability (NCI-H727; first compound 0.4 µM) was 0.472, the relative viability (NCI-H727; first compound 1.265 µM) was 0.624 and the relative viability (NCI-H727; first compound 4 µM) was 0.533. It also gave a relative viability (NCI-H838; first compound 0.04 µM) of 0.249, a relative viability (NCI-H838; first compound 0.1265 µM) of 0.28 and a relative viability (NCI-H838; first compound 0.4 µM) of 0.302. It also gave a relative viability (NCI-H838; first compound 1.265 µM) of 0.228 and a relative viability (NCI-H838; first compound 4 µM) of 0.295.
